Data: patent US5476952A, “Antitumor cyclopentnaphthoquinone and cyclopentanthraquinone derivatives” (Sloan-Kettering Institute for Cancer Research, priority 1993, dated 1995)
pIC50: −log10 of the molar value. Like-named read-outs stand apart in the source and are kept apart here.

Legend:
L1210 = assay: in vitro cell growth inhibition, L1210; assay type: cell-based
Excerpt: (§1) Compounds of the invention show antitumor activity. The antitumor activity of the representative cyclopentanthraquinone derivatives is compared with Mitomycin C, m-AMSA and adriamycin.

human leukemic HL-60 = assay: in vitro cell growth inhibition, HL-60; assay type: cell-based; settings: for pIC50 / antitumor activity against human leukemic HL-60 cell growth (in words): HL-60, in vitro
Excerpt: as §1

L1210 cells = assay: effect against L1210 in mice (mice inoculated i.p. with L1210 cells); assay type: in vivo; set-up: AST / survival time: unit not given here; settings: for % ILS (increase in lifespan): 25% or greater considered significant; for survival time: individual mice
Excerpt: *Increase in lifespan of 25% or greater is considered to be significant.
Mice dying of toxicity (t) not included in AST evaluation.

DNA = settings: literature; cited from earlier work
[1] = system: certain tumor cell growth; settings: literature; without alkylating side chain; cited from earlier work
MT4 = assay: in vitro cell growth inhibition, MT4; assay type: cell-based, human; settings: for pIC50 / antitumor activity against MT4 cell growth (in words): MT4, in vitro
Excerpt: as §1

[2] = literature; cited from earlier work
[3] = Mus musculus, L1210, in vitro, read-out: IC50 for Cell Growth Inhibition, L1210
[4] = L1210, in vitro, read-out: IC50 for Cell Growth Inhibition, L1210

Work on `COc1cccc2c1C(=O)c1c(O)c3c(c(O)c1C2=O)C[C@@](O)(C(=O)CO)C[C@@H]3O[C@H]1C[C@H](N)[C@H](O)[C@H](C)O1` [Adriamycin, reference compound] yielded a pIC50 (L1210; [3]) of 7.70 and a pIC50 (human leukemic HL-60; Homo sapiens) of 7.52.

For `CO[C@@]12[C@H](COC(N)=O)C3=C(C(=O)C(C)=C(N)C3=O)N1C[C@@H]1N[C@@H]12` [Mit-C, reference compound], the pIC50 (L1210; [3]) was 8.30, the AST (L1210 cells; 2.5 mg/kg QD x5, i.p.) was 12.7 and the N/T (L1210 cells; 2.5 mg/kg QD x5, i.p.) was 0/3. The “% ILS (increase in lifespan)” value (L1210 cells; 2.5 mg/kg QD x5, i.p.) was 92%, the “day 4 AWC” value (L1210 cells; 2.5 mg/kg QD x5, i.p.) was “+1.0 g” and the “day 7 AWC” value (L1210 cells; 2.5 mg/kg QD x5, i.p.) was -0.3 g. For the same compound, the N/T (L1210 cells; 5.0 mg/kg QD x5, i.p.) was 0/3, the “day 4 AWC” value (L1210 cells; 5.0 mg/kg QD x5, i.p.) was -2.0 g and the AST (L1210 cells; 20 mg/kg x1, i.p.) was 11.0. For the same compound, the N/T (L1210 cells; 20 mg/kg x1, i.p.) was 0/1, the “% ILS (increase in lifespan)” value (L1210 cells; 20 mg/kg x1, i.p.) was 67% and the survival time (L1210 cells; 20 mg/kg x1, i.p.) was 11. For the same compound, the “interaction with DNA (in words)” value (DNA) was “bind covalently at the minor groove of DNA double strand forming interstrand cross-links”.

In the case of `Cc1cc(O)c2c(c1)C(=O)c1cccc(O)c1C2=O` [chrysophanol], the “activity of the parent natural product (in words)” value [1] is given as “inactive”.

In the case of `O=C1c2ccccc2C(=O)c2c1ccc1c2CC2NC12` (stereo not drawn) [compound IIa, 2,3-aziridino-2,3-dihydro-1H-cyclopent[a]anthracene-6,11-dione], the “antitumor activity against L1210 cell growth (in words)” value (L1210; L1210, in vitro) was “less activity” and the pIC50 (L1210; Mus musculus, L1210, read-out: IC50 for Cell Growth Inhibition, L1210) was 5.04.

For `O=C1c2ccccc2C(=O)c2c1cc(OCCN(CCCl)CCCl)c1c2CCC1` [compound IIb, 4-[2-bis(2-chloroethyl)amino]ethoxy-2,3-dihydro-1H-cyclopent[a]anthracene-6,11-dione], the “antitumor activity against L1210 cell growth (in words)” value (L1210; L1210, in vitro) was “significant antitumor activity”, the pIC50 (L1210; [4]) was 6.54 and the pIC50 (human leukemic HL-60) was 6.74. For the same compound, the “antitumor activity against human leukemic HL-60 cell growth (in words)” value (human leukemic HL-60) was “significant antitumor activity”, the pIC50 (MT4) was 6.96 and the “antitumor activity against MT4 cell growth (in words)” value (MT4) was “significant antitumor activity”. For the same compound, the AST (L1210 cells; 2.5 mg/kg QD x5, i.p.) was 9.0, the N/T (L1210 cells; 2.5 mg/kg QD x5, i.p.) was 0/3 and the “% ILS (increase in lifespan)” value (L1210 cells; 2.5 mg/kg QD x5, i.p.) was 36%. The “day 4 AWC” value (L1210 cells; 2.5 mg/kg QD x5, i.p.) was “+0.3 g”, the “day 7 AWC” value (L1210 cells; 2.5 mg/kg QD x5, i.p.) was “+1.0 g” and the AST (L1210 cells; 5.0 mg/kg QD x5, i.p.) was 9.0. The N/T (L1210 cells; 5.0 mg/kg QD x5, i.p.) was 0/3, the “% ILS (increase in lifespan)” value (L1210 cells; 5.0 mg/kg QD x5, i.p.) was 36% and the “day 4 AWC” value (L1210 cells; 5.0 mg/kg QD x5, i.p.) was -0.3 g. The “day 7 AWC” value (L1210 cells; 5.0 mg/kg QD x5, i.p.) was “+0.7 g”, the AST (L1210 cells; 20 mg/kg x1, i.p.) was 9.0 and the N/T (L1210 cells; 20 mg/kg x1, i.p.) was 0/1. For the same compound, the “% ILS (increase in lifespan)” value (L1210 cells; 20 mg/kg x1, i.p.) was 36%, the “day 4 AWC” value (L1210 cells; 20 mg/kg x1, i.p.) was -2.5 g and the “day 7 AWC” value (L1210 cells; 20 mg/kg x1, i.p.) was “+0.5 g”. It also gave a survival time (L1210 cells; 20 mg/kg x1, i.p.) of 9.

For `O=C1c2ccccc2C(=O)c2c1cc(OCCN(CCCl)CCCl)c1c2CC2NC12` (stereo not drawn) [compound IIc, 2,3-aziridino-4-[2-bis(2-chloroethyl)amino]-ethoxy-2,3-dihydro-1H-cyclopent [a]anthracene-6,11-dione], the “antitumor activity against L1210 cell growth (in words)” value (L1210; L1210, in vitro) was “much greater antitumor activity than that of IIa and IIb”, the pIC50 (L1210; [4]) was 7.19 and the pIC50 (human leukemic HL-60) was 7.12. The “antitumor activity against human leukemic HL-60 cell growth (in words)” value (human leukemic HL-60) was “significant antitumor activity”, the “potency relative to m-AMSA against HL-60 cell growth” value (human leukemic HL-60; compared with m-AMSA, HL-60) was “as potent as m-AMSA” and the pIC50 (MT4) was 7.16. For the same compound, the “antitumor activity against MT4 cell growth (in words)” value (MT4) was “significant antitumor activity”, the “activity relative to m-AMSA against MT4 cell growth” value (MT4; compared with m-AMSA, MT4) was “half as active as m-AMSA” and the AST (L1210 cells; 2.5 mg/kg QD x5, i.p.) was 9.0. For the same compound, the N/T (L1210 cells; 2.5 mg/kg QD x5, i.p.) was 0/3, the “% ILS (increase in lifespan)” value (L1210 cells; 2.5 mg/kg QD x5, i.p.) was 36% and the “day 4 AWC” value (L1210 cells; 2.5 mg/kg QD x5, i.p.) was “+0.3 g”. For the same compound, the AST (L1210 cells; 5.0 mg/kg QD x5, i.p.) was 9.0, the N/T (L1210 cells; 5.0 mg/kg QD x5, i.p.) was 0/3 and the “% ILS (increase in lifespan)” value (L1210 cells; 5.0 mg/kg QD x5, i.p.) was 36%. For the same compound, the “day 4 AWC” value (L1210 cells; 5.0 mg/kg QD x5, i.p.) was -0.3 g, the “day 7 AWC” value (L1210 cells; 5.0 mg/kg QD x5, i.p.) was “+1.7 g” and the AST (L1210 cells; 20 mg/kg x1, i.p.) was 9.0. The N/T (L1210 cells; 20 mg/kg x1, i.p.) was 0/1, the “% ILS (increase in lifespan)” value (L1210 cells; 20 mg/kg x1, i.p.) was 36% and the “day 4 AWC” value (L1210 cells; 20 mg/kg x1, i.p.) was -2.5 g. For the same compound, the “day 7 AWC” value (L1210 cells; 20 mg/kg x1, i.p.) was “+1.5 g” and the survival time (L1210 cells; 20 mg/kg x1, i.p.) was 9.

For `Cc1cc(O)c2c(c1)C(=O)c1cc(O)cc(O)c1C2=O` [emodin], the “activity of the parent natural product (in words)” value [1] is given as “inactive”.

For `CCN(CC)CCNc1ccc(C)c2sc3ccccc3c(=O)c12` [lucanthone], the “interaction with DNA (in words)” value (DNA) is given as “capable of intercalating into DNA and monoalkylating the DNA” and the “antischistosomal and antitumor activity (in words)” value [2] is given as “potent antischistosomal and antitumor activity”.

`COc1cc(NS(C)(=O)=O)ccc1Nc1c2ccccc2nc2ccccc12` [m-AMSA, reference compound] showed a pIC50 (L1210; [3]) of 8.40, a pIC50 (human leukemic HL-60; Homo sapiens) of 7.10 and a pIC50 (MT4; Homo sapiens) of 7.47.
